Source: the supplement of paper PMC10307832

Tests used:
Test in all cases: relative viability (nuclei count vs DMSO), 5 days (fraction); higher = more cells survive
CUDC-101 + Palbociclib = compound: C#Cc1cccc(Nc2ncnc3cc(OC)c(OCCCCCCC(=O)NO)cc23)c1 [CUDC-101] + CC(=O)c1c(C)c2cnc(Nc3ccc(N4CCNCC4)cn3)nc2n(C2CCCC2)c1=O [Palbociclib] (partner 0.5 µM)
Summary of the method: (§1)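 Relative viability was taken as the ratio of nuclei in treated wells to nuclei in vehicle wells. Lung cancer cell lines in 1536-well plates received compounds by pin tool one day after seeding, either one drug alone or a fixed anchor-drug dose plus five library-drug doses (not always all listed) in √10 steps. Nuclei were counted on 4× images after 5 days of treatment, and values are medians of duplicate plates.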

NVP-TAE684 + Phenformin = compound: COc1cc(N2CCC(N3CCN(C)CC3)CC2)ccc1Nc1ncc(Cl)c(Nc2ccccc2S(=O)(=O)C(C)C)n1 [NVP-TAE684] + N=C(N)NC(=N)NCCc1ccccc1 [Phenformin] (partner 250 µM)
Summary of the method: as §1

[1] = compound: C1=CC=C2C(=C1)N=C(S2)C(C#N)C3=NC(=NC=C3)NCCC4=CN=CC=C4 + CC(C)C[C@H](NC(=O)[C@H](Cc1ccccc1)NC(=O)c1cnccn1)B(O)O [Bortezomib] (partner 0.002 µM)
Summary of the method: as §1

[2] = compound: C1=CC=C2C(=C1)N=C(S2)C(C#N)C3=NC(=NC=C3)NCCC4=CN=CC=C4 + Cc1nc(Nc2ncc(C(=O)Nc3c(C)cccc3Cl)s2)cc(N2CCN(CCO)CC2)n1 [Dasatinib] (partner 0.075 µM)
Summary of the method: as §1

| Cell Line | relative viability (CUDC-101 + Palbociclib; first compound 0.01 µM) | relative viability (CUDC-101 + Palbociclib; first compound 0.03162 µM) | relative viability (CUDC-101 + Palbociclib; first compound 0.1 µM) | relative viability (CUDC-101 + Palbociclib; first compound 0.3162 µM) | relative viability (CUDC-101 + Palbociclib; first compound 1 µM) | relative viability (NVP-TAE684 + Phenformin; first compound 0.2 µM) | relative viability (NVP-TAE684 + Phenformin; first compound 0.6325 µM) | relative viability (NVP-TAE684 + Phenformin; first compound 2 µM) | relative viability ([1]; first compound 0.005 µM) | relative viability ([1]; first compound 0.01581 µM) | relative viability ([1]; first compound 0.05 µM) | relative viability ([1]; first compound 0.1581 µM) | relative viability ([1]; first compound 0.5 µM) | relative viability ([2]; first compound 0.005 µM) | relative viability ([2]; first compound 0.01581 µM) | relative viability ([2]; first compound 0.05 µM) | relative viability ([2]; first compound 0.1581 µM) | relative viability ([2]; first compound 0.5 µM) |
| --- | --- | --- | --- | --- | --- | --- | --- | --- | --- | --- | --- | --- | --- | --- | --- | --- | --- | --- |
| HCC-44 | 1.02 | 0.943 | 0.951 | 0.986 | 1.05 | 0.263 | 0.141 | 0.0733 | 0.87 | 0.878 | 0.877 | 0.961 | 0.882 |  |  |  |  |  |
| HCC-78 | 0.44 | 0.483 | 0.458 | 0.427 | 0.374 | 0.658 | 0.442 | 0.422 | 0.547 | 0.575 | 0.49 | 0.465 | 0.589 | 0.386 | 0.337 | 0.42 | 0.609 | 0.407 |
| HCC-366 | 0.411 | 0.442 | 0.389 | 0.39 | 0.296 | 0.66 | 0.629 | 0.588 | 0.85 | 1.1 | 1.07 | 1.3 | 0.927 | 0.591 | 0.848 | 0.539 | 0.824 | 0.676 |
| HCC-827 | 0.35 | 0.283 | 0.155 | 0.169 | 0.142 | 0.377 | 0.41 | 0.372 | 0.999 | 1.04 | 1.09 | 1.15 | 1.06 | 0.331 | 0.301 | 0.336 | 0.307 | 0.284 |
| IA-LM |  |  |  |  |  |  |  |  |  | 0.844 | 0.697 | 0.839 | 0.855 |  |  |  |  |  |
| LK-2 | 0.824 | 0.662 | 0.574 | 0.593 | 0.194 | 0.364 | 0.238 | 0.233 |  |  |  |  |  | 0.393 | 0.264 | 0.243 | 0.26 | 0.311 |
| NCI-H358 | 0.148 | 0.152 | 0.141 | 0.137 | 0.119 | 0.285 | 0.226 | 0.0829 |  |  |  |  |  | 0.177 | 0.155 | 0.162 | 0.178 | 0.245 |
| NCI-H522 | 0.96 | 0.795 | 0.876 | 0.985 | 0.741 | 0.685 | 0.777 | 0.608 |  |  |  |  |  | 0.873 | 0.822 | 0.884 | 1.05 | 0.935 |
| NCI-H596 |  |  |  |  |  | 0.709 | 0.656 | 0.579 | 0.72 | 0.969 | 0.938 | 1.43 | 1.16 | 0.559 | 0.559 | 0.534 | 0.526 | 0.619 |
| NCI-H1299 |  |  |  |  |  |  |  |  | 1.08 | 1.08 | 1.04 | 1.01 | 1.05 |  |  |  |  |  |
| NCI-H1395 | 0.599 | 0.632 | 0.595 | 0.725 | 0.578 | 0.462 | 0.411 | 0.404 |  |  |  |  |  | 0.353 | 0.398 | 0.408 | 0.411 | 0.396 |
| NCI-H1563 |  |  |  |  |  | 0.662 | 0.645 | 0.53 | 0.808 | 0.769 | 0.886 | 0.873 | 0.798 | 0.536 | 0.413 | 0.426 | 0.44 | 0.473 |
| NCI-H1623 |  |  |  |  |  | 0.552 | 0.598 | 0.484 |  |  |  |  |  | 0.476 | 0.476 | 0.514 | 0.612 | 0.591 |
| NCI-H1648 | 0.243 | 0.273 | 0.256 | 0.27 | 0.211 |  |  |  |  |  |  |  |  |  |  |  |  |  |
| NCI-H1703 |  |  |  |  |  |  |  |  | 0.318 | 0.416 | 0.307 | 0.33 | 0.466 |  |  |  |  |  |
| NCI-H1793 | 0.275 | 0.272 | 0.36 | 0.253 | 0.247 | 0.35 | 0.371 | 0.26 |  |  |  |  |  | 0.366 | 0.419 | 0.363 | 0.436 | 0.435 |
| NCI-H1944 | 0.33 | 0.298 | 0.322 | 0.311 | 0.216 | 0.211 | 0.202 | 0.197 |  |  |  |  |  | 0.211 | 0.195 | 0.21 | 0.22 | 0.2 |
| NCI-H2170 | 0.419 | 0.402 | 0.385 | 0.37 | 0.361 | 0.404 | 0.364 | 0.358 |  |  |  |  |  | 0.447 | 0.498 | 0.501 | 0.675 | 0.611 |
| NCI-H2342 | 0.526 | 0.547 | 0.523 | 0.505 | 0.556 | 0.532 | 0.614 | 0.361 |  |  |  |  |  | 0.32 | 0.314 | 0.349 | 0.328 | 0.337 |
| SK-MES-1 | 0.301 | 0.33 | 0.341 | 0.305 | 0.316 | 0.642 | 0.686 | 0.453 |  |  |  |  |  | 0.303 | 0.403 | 0.394 | 0.327 | 0.371 |
| SW 900 | 0.508 | 0.449 | 0.514 | 0.5 | 0.362 | 0.592 | 0.474 | 0.385 |  |  |  |  |  | 0.625 | 0.53 | 0.564 | 0.844 | 0.543 |
